Test [1] relates to Rat Limb Bones (PTH induced bone resorption). Briefly: Bone Resorption Assay: 45Ca Release from Rat Limb Bones (PTH Induced). The format is cell-based, rat (Sprague-Dawley CD). As for the experimental part:
The purpose of this assay is to identify compounds that inhibit basal or stimulated bone resorption in culture.
The ability of 2-substituted-imidazo[4,5-c]pyridines to modify the process of bone resorption was evaluated essentially as described by L.G. Raisz, Bone resorption in tissue culture. Factors influencing the response to parathyroid hormone.
Timed pregnant Sprague-Dawley CD® rats (Charles River) are administered 100 μCi ^45 CaCl2 (NEN calcium -45 NEZ-013) in 100 μL of 0.9% saline, subcutaneously, on day 18 of gestation. The rats are sacrificed the following day by CO2 asphyxiation. The fetuses are removed and the right forelimbs excised and placed in a Petri dish containing ice cold explant medium consisting of modified BGJb -Fitton Jackson media (custom formulation, Gibco No. 78-0088) adjusted to pH 7.3 to which 10 mM TES is added. […] Under a dissecting microscope, the bones are gently cleaned of adherent tissue and the cartilaginous ends removed. Incubation and drug treatment. […] The preincubation medium is brought to 37° C. prior to transfer of bones. The preincubation medium consists of the modified BGJb medium (with salts and glucose as above), pH 7.3, containing 29 mM NaHCO3. […] For compounds that require nonaqueous solvents, dilutions are made from the appropriate stock solution with medium. In these instances, basal and bone resorption stimulated controls exposed to an equivalent concentration of the vehicle are included. […] The right ulna and radius from each fetus are used. Both bones are subjected to the same treatment and each treatment group consists of bones from 4 or more fetuses. Treatments are randomly assigned using a preclinical statistics program (PS-ALLOC). After a 48 hour incubation at 37° C. in 5% CO2, the bones are removed from the medium and extracted in 0.5 mL of 0.1N HCl for 1 or more days. Duplicate 150 μL aliquots of the incubation medium and the bone extract are analyzed for ^45 Ca radioactivity in 5 mL of liquid scintillation cocktail.
The percentage of bone ^45 Ca released into the medium is determined as follows: [formula] […]

For test [2], the system named is osteopenia induced by denervation of the sciatic nerve in rats. Briefly: Denervation Induced Osteopenia in Rats. The format is in vivo, rat (female Sprague Dawley CD). An excerpt: The purpose of this assay is to evaluate the effect, in rats, of agents on the reduction in bone mass (osteopenia) induced by immobilization resulting from surgical severance (denervation) of the sciatic nerve.
The animals are housed in plastic cages (4 or 5 rats/cage) with food (rat purina 500 chow) and water ad libitum; 14/10 day/night cycle.
After one week of in-house acclimatization, the animals are randomly divided into groups of 6 to 10 rats/group. Each rat is weighed, anesthetized with an intraperitoneal administration of 100 mg/kg ketamine (Bristol Laboratories, Syracuse, N.Y.) and 0.75 mg/kg Acepromazine (Aveco, Ft. Dodge, Iowa). The left hind limb is shaved and denervated by making a lateral incision parallel to the femur and by surgically removing half of a centimeter of the sciatic nerve adjacent to caudofemoralis and adductor brevis muscles. The incision is closed with wound clips. After surgery, the rats are housed in cages with absorbent bedding to minimize additional trauma to the immobilized limb. A 24 hour post-surgery recovery period is allowed before the initiation of the drug treatment.
The concentration of the drug stock is calculated to be delivered in a volume of 0.1 mL/100 gram body weight. The drug solution or a uniform suspension is prepared in 1% Tween 80 in normal saline. The drugs are administered via oral or parenteral routes daily (five times a week) for four weeks.
A sequential triple labeling of mineralized tissue is employed to determine the osseous changes (especially the bone formation) and the mineralization rates. Each animal is administered 90 mg/kg Xylenol orange (Fisher Scientific Company), S.C., 15 mg/kg Calcein (Sigma Chemical Company), S.C. and 15 mg/kg Demeclocycline (Sigma Chemical Company), i.p., approximately 21 days, 10 days and 2 days prior to the termination of the study, respectively.
At the end of the fourth week, each rat is weighed, anesthetized with an intraperitoneal administration of 100 mg/kg ketamine with 0.75 mg/kg Acepromazine and approximately 4 mL of blood collected via cardiac puncture. The anesthetized rats are euthanized by exposure to carbon dioxide. The femora and tibiae from both limbs are dissected free of soft tissue. (i) Femora are ashed at ~1100° C. for 16 hours using a muffle furnace. --(ii) Proximal tibia are fixed, dehydrated and embedded undecalcified in a methyl methacrylate-glycol methacrylate mixture. Longitudinal tissue sections (10 microns) are prepared on a Polycut S microtome (Reichert). Staining is performed on free-floating sections using a modified Goldner's stain, which are then mounted and coverslipped.
Cancellous bone content in the proximal tibia is quantified (as two dimensional bone mineral area [B.Ar]) with an image analysis processing device (software developed by Drexel University).
The areas of the tibia selected for cancellous bone content evaluation are the primary and secondary spongiosa. To select and standardize this area for evaluation, the epiphyseal growth plate-metaphyseal junction is oriented parallel to the abscissa of the digitizing screen. Bone elements 1.7 mm (secondary spongiosa) and 0.2 mm (primary spongiosa) from the growth plate and equidistant from the flanking cortical elements are then quantified as described above. The total area evaluated is 2.30 mm wide and 1.45 mm deep, constituting a 3.34 mm^2 area.
Body weight, femur mass (dried or ashed) and trabecular (cancellous) bone mineral area (B.Ar) are determined.
The difference (both absolute and percent change) in femur mass and bone mineral area between intact (control) and denervated limbs of a treatment group are compared with that for the vehicle group using a one-way analysis of variance with Dunnett's test, or other multiple comparison methods.
The results are reported in Table I and II under the heading In Vivo.

Setting [3] is: Table I, concentration not given.
The mark [4] stands for this setting: Table II, 25 mg/kg, route not given.

The text below walks through data of patent US5081253A, “Imidazo(4,5-C)pyridines as antiosteoporotic agents” (American Home Products Corporation, priority 1990, dated 1992).

Regarding `COc1cc(C[S+]([O-])c2nc3cnccc3[nH]2)cc(OC)c1OC` (stereo not drawn) [Example 29, 2-[[(3,4,5-Trimethoxyphenyl)methyl]sulfinyl]-1H-imidazo[4,5-c]pyridine-One Third Hydrate], the “Inhibition of Bone Resorption, PTH Induced” value (from here on “Inhibition … PTH Induced”) in test [1] (setting [3]) is given as “Inactive”. Besides, the “Inhibition of Bone Resorption, In Vivo” value in test [2] (po, 672 h) is “Inactive”. Turning to `COc1ccccc1CSc1nc2cnccc2[nH]1` [Example 42, 2-[[(2-Methoxyphenyl)methyl]thio]-1H-imidazo[4,5-c]pyridine], the “Inhibition … PTH Induced” value in test [1] (Table II, 10 μg/mL) was “Active”. `COc1cccc(C[S+]([O-])c2nc3cnccc3[nH]2)c1` (single isomer, unassigned) [Example 58, [R-(-)]-2-[[(3-Methoxyphenyl)methyl]sulfinyl]-1H-imidazo[4,5-c]pyridine One Quarter Hydrate]: the “Inhibition … PTH Induced” value in test [1] (setting [3]) is given as “Active”. Regarding `CCOc1cccc(CSc2nc3cnccc3[nH]2)c1` [Example 52, 2-[[(3-Ethoxyphenyl)methyl]thio]-1H-imidazo[4,5-c]pyridine], in test [1] (Table II, 10 μg/mL), the “Inhibition … PTH Induced” value is on record as “Inactive”. Moreover, in test [2] (setting [4]), the “Inhibition of Bone Resorption, In Vivo” value is listed as “Inactive”.

In the case of `COc1cccc(CCSc2nc3cnccc3[nH]2)c1` [Example 16, 2-[[(3-Methoxyphenyl)ethyl]thio]-1H-imidazo[4,5-c]pyridine], the “Inhibition … PTH Induced” value in test [1] (Table II, 10 μg/mL) is “Inactive”. Moreover, in test [2] (Table II, 25 mg/kg, p.o.), the “Inhibition of Bone Resorption, In Vivo” value is recorded as “Inactive”. Turning to `N#Cc1ccccc1C[S+]([O-])c1nc2cnccc2[nH]1` (stereo not drawn) [Example 39, 2-[[(1H-Imidazo[4,5-c]pyridin-2-yl)sulfinyl]methyl]benzonitrile], the “Inhibition … PTH Induced” value in test [1] (Table I, 10 μg/mL) is listed as “Active”. In addition, the “Inhibition of Bone Resorption, In Vivo” value in test [2] (po, 672 h) is “Inactive”. As for `c1ccc(Oc2cccc(CSc3nc4cnccc4[nH]3)c2)cc1` [Example 46, 2-[[(3-Phenoxyphenyl)methyl]thio]-1H-imidazo[4,5-c]pyridine], in test [1] (Table II, 10 μg/mL), the “Inhibition … PTH Induced” value was “Inactive”. Besides, the “Inhibition of Bone Resorption, In Vivo” value in test [2] (setting [4]) is given as “Inactive”.

Turning to `CCOc1cccc(C[S+]([O-])c2nc3cnccc3[nH]2)c1` (stereo not drawn) [Example 53, 2-[[(3-Ethoxyphenyl)methyl]sulfinyl]-1H-imidazo[4,5-c]pyridine One Third Hydrate], in test [1] (Table I, 10 μg/mL), the “Inhibition … PTH Induced” value is “Active”.

On to `O=[N+]([O-])c1cccc(C[S+]([O-])c2nc3cnccc3[nH]2)c1` (stereo not drawn) [Example 49, 2-[[(3-Nitrophenyl)methyl]sulfinyl]-1H-imidazo[4,5-c]pyridine 0.15 Dimethylformamide], for which, in test [2] (po, 672 h), the “Inhibition of Bone Resorption, In Vivo” value is “Inactive”. For `COc1cccc(C[S+]([O-])c2nc3cnccc3[nH]2)c1` (single isomer, unassigned) [Example 57], the “Inhibition … PTH Induced” value in test [1] (setting [3]) was “Active”. As for `[O-][S+](Cc1ccccc1F)c1nc2cnccc2[nH]1` (stereo not drawn) [Example 41, 2-[[(2-Fluorophenyl)methyl]sulfinyl]-1H-imidazo[4,5-c]pyridine Quarter Hydrate], in test [1] (Table I, 10 μg/mL), the “Inhibition … PTH Induced” value is recorded as “Active”. Besides, the “Inhibition of Bone Resorption, In Vivo” value in test [2] (po, 672 h) was “Inactive”.

Take `COc1ccc(C[S+]([O-])c2nc3cnccc3[nH]2)cc1` (stereo not drawn) [Example 27, 2-[[(4-Methoxyphenyl)methyl]sulfinyl]-1H-imidazo[4,5-c]-pyridine-One Third Hydrate]: the “Inhibition … PTH Induced” value in test [1] (Table I, 10 μg/mL) is “Active”. Also, in test [2] (po, 672 h), the “Inhibition of Bone Resorption, In Vivo” value is listed as “Inactive”.

Turning to `COc1ccc(C[S+]([O-])c2nc3cnccc3[nH]2)cc1C` (stereo not drawn) [Example 51, 2-[[(4-Methoxy-3-methylphenyl)methyl]sulfinyl]-1H-imidazo[4,5-c]pyridine], the “Inhibition of Bone Resorption, In Vivo” value in test [2] (po, 672 h) is reported as “Inactive”. Take `Br.Br.Oc1cccc(CSc2nc3cnccc3[nH]2)c1` [Example 54, 3-[[(1H-Imidazo[4,5-c]pyridin-2-yl)thio]methyl]phenol Dihydrobromide]: in test [1] (Table II, 10 μg/mL), the “Inhibition … PTH Induced” value is “Inactive”. The “Inhibition of Bone Resorption, In Vivo” value in test [2] (setting [4]) is on record as “Inactive”. Take `COc1ccccc1C[S+]([O-])c1nc2cnccc2[nH]1` (stereo not drawn) [Example 43, 2-[[(2-Methoxyphenyl)methyl]sulfinyl]-1H-imidazo[4,5-c]pyridine]: in test [1] (Table I, 10 μg/mL), the “Inhibition … PTH Induced” value is recorded as “Active”.

In the case of “2-[[(3,5-Dimethoxyphenyl)methyl]thio]-1H-imidazo[4,5-c]pyridine [Example 44]”, in test [1] (Table II, 10 μg/mL), the “Inhibition … PTH Induced” value is given as “Active”. In addition, in test [2] (setting [4]), the “Inhibition of Bone Resorption, In Vivo” value is reported as “Inactive”. As to `COc1cc(C[S+]([O-])c2nc3cnccc3[nH]2)cc(OC)c1` (stereo not drawn) [Example 45, 2-[[(3,5-Dimethoxyphenyl)methyl]sulfinyl]-1H-imidazo[4,5-c]pyridine], the “Inhibition … PTH Induced” value in test [1] (Table I, 10 μg/mL) is recorded as “Active”. Moreover, the “Inhibition of Bone Resorption, In Vivo” value in test [2] (po, 672 h) is listed as “Inactive”. `Clc1cc2c(cc1CSc1nc3cnccc3[nH]1)OCO2` [Example 24, 2-[[(6-Chloro-1,3-benzodioxol-5-yl)methyl]thio]-1H-imidazo[4,5-c]pyridine]: the “Inhibition … PTH Induced” value in test [1] (Table II, 10 μg/mL) is recorded as “Active”.

On to `N#Cc1ccccc1CSc1nc2cnccc2[nH]1` [Example 38, 2-[(1H-Imidazo[4,5-c]pyridin-2-ylthio)methyl]benzonitrile], for which the “Inhibition … PTH Induced” value in test [1] (Table II, 10 μg/mL) was “Inactive”. In addition, the “Inhibition of Bone Resorption, In Vivo” value in test [2] (setting [4]) was “Inactive”. Take `O=[N+]([O-])c1cccc(CSc2nc3cnccc3[nH]2)c1` [Example 48, 2-[[(3-Nitrophenyl)methyl]thio]-1H-imidazo[4,5-c]pyridine]: the “Inhibition of Bone Resorption, In Vivo” value in test [2] (setting [4]) is on record as “Inactive”.

For the molecule `[O-][S+](Cc1cccc(Oc2ccccc2)c1)c1nc2cnccc2[nH]1` (stereo not drawn) [Example 47, 2-[[(3-Phenoxyphenyl)methyl]sulfinyl]-1H-imidazo[4,5-c]pyridine], the “Inhibition … PTH Induced” value in test [1] (Table I, 10 μg/mL) is “Active”. Moreover, the “Inhibition of Bone Resorption, In Vivo” value in test [2] (po, 672 h) was “Inactive”. `COc1ccc(CSc2nc3cnccc3[nH]2)cc1C` [Example 50, 2-[[(4-Methoxy-3-methylphenyl)methyl]thio]-1H-imidazo[4,5-c]pyridine]: the “Inhibition of Bone Resorption, In Vivo” value in test [2] (setting [4]) was “Inactive”. Turning to `Fc1ccccc1CSc1nc2cnccc2[nH]1` [Example 40, 2-[[(2-Fluorophenyl)methyl]thio]-1H-imidazo[4,5-c]pyridine], in test [1] (Table II, 10 μg/mL), the “Inhibition … PTH Induced” value was “Active”. The “Inhibition of Bone Resorption, In Vivo” value in test [2] (setting [4]) is “Inactive”.
